In US4151350A, “Poly-5-hydroxycytidylic acid copolymers” (priority 1976, dated 1979):

Columns and labels:
[1] = Acute toxicity (LD50), intraperitoneal, mice (Example 6, Table 4); type: in vivo, 6 week old female albino mice; settings: i.p.; for Estimated LD50 dose: mice
Source text: The toxicity of these mixtures (LD50) are compared with the toxicity of poly I alone and the double-stranded complex between poly I and poly C (poly I:C). The mixtures contained poly ho^5 C containing 62% ho^5 CMP and 38% br^5 CMP obtained by bromine water treatment of poly C as described in example 1. Some of this material was frozen in the absence of salt to produce a gelled material when thawed. This material was homogenised and mixed with an equal weight of poly I and then administered intraperitoneally to the mice. Some of the poly ho^5 C is kept unfrozen and mixed with poly I and then administered intraperitoneally to the mice.
Poly I:C was made up in HBS at 5mg. 8mg, 10mgs and 13mg/ml and 0.1ml
injected per mouse to give the total doses shown.
Poly I was made up in HBS at 12mg/ml and appropriate volumes administered
to give the final doses indicated.
in HBS to a total polynucleotide concentration of 12mg/ml and appropriate
volumes administered to give the final doses indicated.
No deaths occurred after 7 days (records maintained 2 months) and mean

[2] = particularly by virtue of its ability to induce interferon; cited from earlier work

In the case of poly I:C, the “Survival of mice per group” value ([1]; 0.5 mg total polynucleotides) is reported as 10/10, the “Survival of mice per group” value ([1]; 0.8 mg total polynucleotides) is reported as 8/10 and the “Survival of mice per group” value ([1]; 1.0 mg total polynucleotides) is reported as 6/10. The “Survival of mice per group” value ([1]; 1.3 mg total polynucleotides) was 0/10, the “Estimated LD50 dose” value [1] was 1.1 mg/mouse and the “Estimated LD50 dose” value ([1]; mean weight 23 g) was 48 mg/kilogram. For the same substance, the “anti-viral effects” value [2] was “known to have anti-viral effects”.

With polyinosinic acid [poly I] the “Survival of mice per group” value ([1]; 8 mg total polynucleotides) was 5/6, the “Survival of mice per group” value ([1]; 12 mg total polynucleotides) was 5/6 and the “Survival of mice per group” value ([1]; 16 mg total polynucleotides) was 3/6. For the same substance, the “Survival of mice per group” value ([1]; 24 mg total polynucleotides) was 1/6, the “Estimated LD50 dose” value [1] was 16 mg/mouse and the “Estimated LD50 dose” value ([1]; mean weight 23 g) was 695 mg/kilogram.
